Blank lines part the entries; values can stand above or below the compound they belong to. The source made the active and inactive calls.
Columns and labels:
[1] = target: Mu-type opioid receptor (Homo sapiens, UniProt P35372); assay: SAR Analysis of Antagonists of the MOR Receptor using an Image-Based Assay - Set 3. [Related pubchem assays (depositor defined):AID1777, AID1785, AID1786, AID1966, AID2133, AID2136, AID2284, AID2285, AID2420]; assay type: functional
[2] = target: Delta-type opioid receptor (Homo sapiens, UniProt P41143); assay: SAR Analysis of Antagonists of the DOR Receptor using an Image-Based Assay - Set 3. [Related pubchem assays (depositor defined):AID1777, AID1785]; assay type: functional;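 note: U2OS cells expressing DOR1 and beta-arrestin GFP stimulated with 100 nM SNC80; imaging of GFP-tagged beta-arrestin moving into spots after receptor activation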
[3] = target: Photoreceptor-specific nuclear receptor (Homo sapiens, UniProt Q9Y5X4); assay type: functional, cell-based;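 note: CHO-S cells with Gal4-NCOR and VP16-NR2E3 two-hybrid luciferase reporter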
[4] = target: Ion channel NompC (Danio rerio, UniProt Q7T1G6); assay: Fluorescence counterscreen assay for TRPML3 agonists: dose response cell-based high-throughput screening assay to identify agonists of the transient receptor potential channel N1 (TRPN1). [Related pubchem assays: 1526, 1424, 1448 ]; assay type: functional
[5] = target: T1, Mucolipin-3 (Homo sapiens, UniProt Q8TDD5); assay: Dose response cell-based high-throughput screening assay for agonists of the transient receptor potential channel ML3 (TRPML3). [Related pubchem assays: 1526, 1424, 1448 ]; assay type: functional
T1 sequence (Q8TDD5 whole entry): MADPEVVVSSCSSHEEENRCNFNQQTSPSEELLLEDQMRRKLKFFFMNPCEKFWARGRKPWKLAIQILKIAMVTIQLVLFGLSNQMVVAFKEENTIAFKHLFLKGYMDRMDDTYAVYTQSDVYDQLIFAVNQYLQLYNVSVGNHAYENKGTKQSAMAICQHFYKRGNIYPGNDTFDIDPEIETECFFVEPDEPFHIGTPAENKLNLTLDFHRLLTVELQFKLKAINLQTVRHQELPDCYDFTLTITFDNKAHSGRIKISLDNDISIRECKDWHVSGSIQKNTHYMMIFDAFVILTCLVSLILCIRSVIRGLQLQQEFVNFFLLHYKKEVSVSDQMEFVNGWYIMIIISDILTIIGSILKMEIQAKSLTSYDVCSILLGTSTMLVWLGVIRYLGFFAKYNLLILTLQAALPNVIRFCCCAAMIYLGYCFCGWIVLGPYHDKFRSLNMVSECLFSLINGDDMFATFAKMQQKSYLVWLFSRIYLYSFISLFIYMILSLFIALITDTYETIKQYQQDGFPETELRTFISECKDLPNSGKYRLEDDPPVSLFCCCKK

[6] = target: T2, Beta-galactosidase (Escherichia coli, UniProt Q8VNN2); assay: detection-enzyme interference by beta-gal modulators – biochemical, E. coli enzyme, set 3, artefact control for CCR6 antagonist project, dose response (AID 504712); assay type: functional
[7] = target: T2, Beta-galactosidase; assay type: functional
[8] = target: T3, Kappa-type opioid receptor (Homo sapiens, UniProt P41145); assay type: functional
[9] = target: T3, Kappa-type opioid receptor; assay type: functional; remark: listed apart in the source
[10] = target: T4, Ubiquitin-conjugating enzyme E2 N (Homo sapiens, UniProt P61088); assay type: functional
T4 sequence (P61088 whole entry): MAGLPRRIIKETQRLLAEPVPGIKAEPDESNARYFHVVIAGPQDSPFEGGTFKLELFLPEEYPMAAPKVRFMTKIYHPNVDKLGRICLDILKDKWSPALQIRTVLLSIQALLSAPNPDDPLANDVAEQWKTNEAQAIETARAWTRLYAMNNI

[11] = target: T5, Bcl-2-related protein A1 (Mus musculus, UniProt Q07440); assay type: functional;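 note: confirmatory dose–response counterscreen on Bfl-1, used to check hits from a UBC13 polyubiquitin inhibitor campaign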
T5 sequence (Q07440 whole entry): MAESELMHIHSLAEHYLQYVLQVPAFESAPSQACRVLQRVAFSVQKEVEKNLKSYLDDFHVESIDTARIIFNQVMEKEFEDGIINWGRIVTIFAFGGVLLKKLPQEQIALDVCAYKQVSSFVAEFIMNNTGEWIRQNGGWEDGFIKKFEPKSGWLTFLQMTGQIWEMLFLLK

[12] = target: T4, Ubiquitin-conjugating enzyme E2 N; assay type: functional; remark: listed apart in the source
[13] = target: E3 ubiquitin-protein ligase XIAP (Homo sapiens, UniProt P98170); assay: Counter Screen using XIAP-Bir3 for Chemical Antagonists of Bir1/2 domains of IAP-family anti-apoptotic proteins. [Related pubchem assays (depositor defined):AID1018, AID1449, AID1514, AID1638, AID1749, AID1750, AID488957, AID488963]
[14] = target: Coagulation factor XII (Homo sapiens, UniProt P00748); assay type: functional;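 note: activated factor XIIa alpha cleaving a fluorogenic AMC peptide substrate; inhibitor potency from loss of enzyme activity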
[15] = target: T6, Runt-related transcription factor 1/Core-binding factor subunit beta (Homo sapiens, UniProt Q01196+Q13951); assay: Runt domain/CBFb-SMMHC interaction disruptors – biochemical, TR-FRET (AID 1438); assay type: protein assay
[16] = target: Dual specificity tyrosine-phosphorylation-regulated kinase 1A (Rattus norvegicus, UniProt Q63470); assay type: biochemical, Homo sapiens
[17] = target: T6, Runt-related transcription factor 1/Core-binding factor subunit beta; assay: Confirmation of compounds inhibiting the binding between the RUNX1 Runt domain and CBFb-SMMHC via a time resolved fluorescence resonance energy transfer (TR-FRET) assay. [Related pubchem assays (depositor defined):AID1434, AID1438, AID1496, AID1560, AID1645]; assay type: protein assay
[18] = target: T6, Runt-related transcription factor 1/Core-binding factor subunit beta; assay: disruptors of Runt domain/CBFb-SMMHC interaction – biochemical, FRET, Cerulean-Runt, Venus-CBFb-SMMHC, uHTS, […] (AID 1434); assay type: protein assay
[19] = target: T6, Runt-related transcription factor 1/Core-binding factor subunit beta; assay: Confirmation of compounds inhibiting the binding between the RUNX1 Runt domain and CBFb-SMMHC via a fluorescence resonance energy transfer (FRET) assay. [Related pubchem assays (depositor defined):AID1434, AID1438, AID1496, AID1550, AID1645]; assay type: protein assay

T6 sequence (Q01196 whole entry, the tested form may be a part): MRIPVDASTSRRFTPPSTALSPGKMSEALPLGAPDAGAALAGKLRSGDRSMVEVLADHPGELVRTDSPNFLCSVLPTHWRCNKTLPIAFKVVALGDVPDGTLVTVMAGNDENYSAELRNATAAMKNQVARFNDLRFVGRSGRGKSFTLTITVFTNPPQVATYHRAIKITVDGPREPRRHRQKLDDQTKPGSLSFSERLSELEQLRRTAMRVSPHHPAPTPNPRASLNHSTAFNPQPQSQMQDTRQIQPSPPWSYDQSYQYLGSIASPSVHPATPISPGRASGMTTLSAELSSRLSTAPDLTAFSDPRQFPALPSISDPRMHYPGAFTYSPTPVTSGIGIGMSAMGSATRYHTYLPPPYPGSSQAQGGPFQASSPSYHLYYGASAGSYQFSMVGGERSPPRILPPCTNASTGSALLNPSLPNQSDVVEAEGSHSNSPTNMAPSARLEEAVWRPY
T6 sequence (Q13951 whole entry, the tested form may be a part): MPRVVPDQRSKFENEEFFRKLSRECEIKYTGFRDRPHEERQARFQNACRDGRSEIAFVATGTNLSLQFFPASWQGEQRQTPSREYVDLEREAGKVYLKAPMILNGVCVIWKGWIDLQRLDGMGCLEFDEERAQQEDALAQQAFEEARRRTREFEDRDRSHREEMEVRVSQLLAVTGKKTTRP
T2 sequence (Q8VNN2 whole entry): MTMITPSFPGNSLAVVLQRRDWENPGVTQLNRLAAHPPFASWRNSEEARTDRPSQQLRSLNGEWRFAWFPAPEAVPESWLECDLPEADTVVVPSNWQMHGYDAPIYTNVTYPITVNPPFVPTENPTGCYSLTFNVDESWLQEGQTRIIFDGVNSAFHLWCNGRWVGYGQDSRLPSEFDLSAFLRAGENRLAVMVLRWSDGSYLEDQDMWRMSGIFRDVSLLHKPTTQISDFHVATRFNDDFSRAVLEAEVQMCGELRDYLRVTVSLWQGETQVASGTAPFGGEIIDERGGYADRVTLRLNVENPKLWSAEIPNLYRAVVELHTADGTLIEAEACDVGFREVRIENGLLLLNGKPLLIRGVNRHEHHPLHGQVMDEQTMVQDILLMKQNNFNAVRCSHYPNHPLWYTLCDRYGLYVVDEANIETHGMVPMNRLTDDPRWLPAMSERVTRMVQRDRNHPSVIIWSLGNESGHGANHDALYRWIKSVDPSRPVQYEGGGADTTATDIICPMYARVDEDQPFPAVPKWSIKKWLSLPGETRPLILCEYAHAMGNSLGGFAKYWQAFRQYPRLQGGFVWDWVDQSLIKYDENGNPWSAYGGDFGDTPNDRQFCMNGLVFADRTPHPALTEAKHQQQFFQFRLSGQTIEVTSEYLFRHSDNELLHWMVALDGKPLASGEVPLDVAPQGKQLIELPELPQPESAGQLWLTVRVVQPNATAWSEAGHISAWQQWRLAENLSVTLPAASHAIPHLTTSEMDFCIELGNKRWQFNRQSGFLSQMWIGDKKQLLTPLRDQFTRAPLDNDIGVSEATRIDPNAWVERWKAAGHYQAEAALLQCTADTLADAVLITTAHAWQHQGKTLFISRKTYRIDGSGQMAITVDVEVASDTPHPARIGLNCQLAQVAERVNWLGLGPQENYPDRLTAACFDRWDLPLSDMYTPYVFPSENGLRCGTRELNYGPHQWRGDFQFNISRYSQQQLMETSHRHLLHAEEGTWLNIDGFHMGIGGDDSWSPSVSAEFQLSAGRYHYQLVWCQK
T3 sequence (P41145 whole entry): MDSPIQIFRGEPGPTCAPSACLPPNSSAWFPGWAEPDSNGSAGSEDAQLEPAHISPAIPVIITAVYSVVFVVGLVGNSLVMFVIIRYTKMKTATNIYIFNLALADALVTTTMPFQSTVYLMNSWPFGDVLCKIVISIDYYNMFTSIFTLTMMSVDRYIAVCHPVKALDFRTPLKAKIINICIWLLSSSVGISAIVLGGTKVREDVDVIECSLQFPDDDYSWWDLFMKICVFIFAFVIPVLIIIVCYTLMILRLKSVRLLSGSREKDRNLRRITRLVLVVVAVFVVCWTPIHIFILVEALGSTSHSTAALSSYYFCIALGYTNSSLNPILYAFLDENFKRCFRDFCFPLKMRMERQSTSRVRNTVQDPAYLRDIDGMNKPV
Sequence of E3 ubiquitin-protein ligase XIAP (P98170 whole entry): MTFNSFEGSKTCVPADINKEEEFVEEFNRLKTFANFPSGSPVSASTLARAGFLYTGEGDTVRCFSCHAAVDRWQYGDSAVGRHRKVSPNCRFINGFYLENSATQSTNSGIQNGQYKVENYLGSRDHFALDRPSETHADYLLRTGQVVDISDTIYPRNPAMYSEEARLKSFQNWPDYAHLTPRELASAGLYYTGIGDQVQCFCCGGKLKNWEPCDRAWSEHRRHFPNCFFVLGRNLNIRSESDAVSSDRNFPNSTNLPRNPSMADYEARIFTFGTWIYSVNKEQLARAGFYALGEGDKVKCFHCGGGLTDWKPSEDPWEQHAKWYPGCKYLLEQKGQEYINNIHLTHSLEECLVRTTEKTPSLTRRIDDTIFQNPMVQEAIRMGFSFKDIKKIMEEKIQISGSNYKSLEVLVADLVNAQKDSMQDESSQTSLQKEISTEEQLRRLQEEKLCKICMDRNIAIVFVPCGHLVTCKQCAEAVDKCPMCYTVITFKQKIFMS
Sequence of Photoreceptor-specific nuclear receptor (Q9Y5X4 whole entry, the tested form may be a part): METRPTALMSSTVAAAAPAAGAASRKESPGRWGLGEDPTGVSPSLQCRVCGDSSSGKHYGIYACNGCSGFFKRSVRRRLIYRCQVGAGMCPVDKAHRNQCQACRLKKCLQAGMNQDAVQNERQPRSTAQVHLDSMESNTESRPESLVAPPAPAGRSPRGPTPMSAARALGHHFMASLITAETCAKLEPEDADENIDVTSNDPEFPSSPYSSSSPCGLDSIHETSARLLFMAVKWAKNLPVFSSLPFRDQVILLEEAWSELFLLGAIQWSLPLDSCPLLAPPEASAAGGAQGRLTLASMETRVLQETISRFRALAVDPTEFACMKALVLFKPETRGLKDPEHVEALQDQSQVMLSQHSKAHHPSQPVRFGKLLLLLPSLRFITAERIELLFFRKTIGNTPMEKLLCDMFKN
Sequence of Mu-type opioid receptor (P35372 whole entry): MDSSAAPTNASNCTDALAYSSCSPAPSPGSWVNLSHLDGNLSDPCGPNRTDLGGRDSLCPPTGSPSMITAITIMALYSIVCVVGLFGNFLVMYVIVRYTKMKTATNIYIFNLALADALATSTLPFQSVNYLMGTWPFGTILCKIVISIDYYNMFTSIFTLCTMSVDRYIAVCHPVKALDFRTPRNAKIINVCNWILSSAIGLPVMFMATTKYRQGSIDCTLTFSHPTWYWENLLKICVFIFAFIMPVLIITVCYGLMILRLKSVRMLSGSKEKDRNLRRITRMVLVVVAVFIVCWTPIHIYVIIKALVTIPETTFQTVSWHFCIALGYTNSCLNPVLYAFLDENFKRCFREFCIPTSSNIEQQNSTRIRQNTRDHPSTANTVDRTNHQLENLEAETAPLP
Sequence of Delta-type opioid receptor (P41143 whole entry, the tested form may be a part): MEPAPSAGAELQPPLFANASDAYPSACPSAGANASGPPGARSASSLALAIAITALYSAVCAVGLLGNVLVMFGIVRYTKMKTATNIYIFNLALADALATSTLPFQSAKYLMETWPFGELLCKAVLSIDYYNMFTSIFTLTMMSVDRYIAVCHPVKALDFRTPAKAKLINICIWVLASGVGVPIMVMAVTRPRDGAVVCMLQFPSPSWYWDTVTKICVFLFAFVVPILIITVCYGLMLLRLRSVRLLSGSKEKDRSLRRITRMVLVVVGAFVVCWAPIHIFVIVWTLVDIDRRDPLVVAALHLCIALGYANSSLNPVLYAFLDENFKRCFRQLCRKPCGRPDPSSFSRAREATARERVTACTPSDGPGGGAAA
Sequence of Coagulation factor XII (P00748 20-372 limits assumed): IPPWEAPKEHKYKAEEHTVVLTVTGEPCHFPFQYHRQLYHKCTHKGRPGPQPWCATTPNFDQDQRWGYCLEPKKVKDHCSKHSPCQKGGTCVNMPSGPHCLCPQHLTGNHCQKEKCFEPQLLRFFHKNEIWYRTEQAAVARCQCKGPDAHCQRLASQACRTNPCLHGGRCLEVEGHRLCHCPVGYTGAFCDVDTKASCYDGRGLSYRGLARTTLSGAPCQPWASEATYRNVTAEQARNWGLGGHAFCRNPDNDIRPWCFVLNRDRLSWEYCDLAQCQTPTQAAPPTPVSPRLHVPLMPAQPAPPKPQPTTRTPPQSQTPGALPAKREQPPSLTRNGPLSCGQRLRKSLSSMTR
Sequence of Coagulation factor XII (P00748 373-615 limits assumed): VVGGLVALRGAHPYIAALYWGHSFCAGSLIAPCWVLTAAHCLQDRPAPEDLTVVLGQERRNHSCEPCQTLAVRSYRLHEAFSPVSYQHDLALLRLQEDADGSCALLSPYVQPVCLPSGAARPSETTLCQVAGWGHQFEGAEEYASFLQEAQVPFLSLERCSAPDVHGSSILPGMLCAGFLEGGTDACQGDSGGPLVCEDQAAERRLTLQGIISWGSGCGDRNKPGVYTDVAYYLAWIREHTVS

SMILES: N=C1SCC(=O)N1c1ncc(Cc2ccccc2Cl)s1
IC50 [3]: 3 µM (active)
EC50 [4]: > 29.9 µM (not active)
EC50 [5]: 1.16 µM (active)
IC50 [6]: > 66.6 µM (inactive)
EC50 [7]: > 31.5 µM (inactive)
IC50 [8]: 6.6 µM (active)
IC50 [9]: > 32 µM

SMILES: CCCCN=C(S)N=Nc1c(O)[nH]c2ccccc12
IC50 [10]: 8.6 µM (active)
IC50 [11]: > 20 µM (inactive)
IC50 [12]: 5.96 µM (active)

SMILES: Cc1ccc(/C=C(\C#N)C(=O)Nc2cccc3ncccc23)o1
IC50 [15]: 17.4 µM (active)
AC50 [16]: 0.701 µM (active)
IC50 [17]: > 25 µM (inactive)
IC50 [18]: 23.6 µM (active)
IC50 [19]: 26.6 µM (active)

The next lines start with the values.

IC50 [1]: > 32 µM (inactive)
IC50 [2]: > 32 µM (inactive)
SMILES: COc1ccc(N2CCN(CCCNC(=O)Cn3c(=O)c4cccn4c4c(C)ccnc43)CC2)cc1

IC50 [13]: > 20 µM (inactive)
SMILES: O=C(Nc1ccc(Br)cc1)c1ccc(N2C(=O)C3CC=CCC3C2=O)cc1 (centres undefined)

IC50 [14]: > 50 µM (inactive)
SMILES: Cc1ccc(S(=O)(=O)CCN2C=CC(C(F)(F)F)=NCC2)cc1

Source: ChEMBL document CHEMBL1201862, “PubChem BioAssay data set” (2004)
